The target in series [1] is PDE4B (aa 152-484, Uniprot ID Q07343) (Homo sapiens (Human), UniProt Q07343). The series is described as follows: PDE4 SPA assay (scintillation proximity assay). In kind it is biochemical. The settings on record: read-out: PDE4B2 IC50. The procedure, abridged:
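Scintillation proximity read-out after a 30 min room-temperature reaction of ~81.6 pM PDE4B catalytic fragment (aa 152-484) with 1 μM tritiated/unlabeled cAMP, pH 7.5 Tris buffer with MgCl2 and Brij 35. Compound given ~10 min beforehand, 4-fold dilutions, ~2% DMSO; IC50 from four-parameter logistic curve.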
(In general: SPA uses beads or plates that emit light when radiolabelled molecules are held near them.)

The next series relates to IL-4. The series is described as follows: Cytokine assay: IL-4 release from PHA-L stimulated human PBMCs. The series is classed as cell-based. The conditions noted are these: Homo sapiens, PBMC, read-out: IL4 IC50. The procedure, abridged:
(§1)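 Cytokines IL-4, IL-13 and IFNγ quantified by HTRF after 48 h, 37 °C culture of human PBMCs activated with PHA-L at 3.5 μg/mL final. Test compound, 4-fold dilutions from approximately 10 μM in 0.25% DMSO, was added briefly before stimulation; IC50 derived by four-parameter logistic regression.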

The subject of another series is IL-13. Put plainly: Cytokine assay: IL-13 release from PHA-L stimulated human PBMCs. The series is classed as cell-based. The conditions noted are these: Homo sapiens, PBMC, read-out: IL13 IC50. The procedure, abridged:
as §1

The test system of the next series is IFNγ. Put plainly: Cytokine assay: IFNγ release from PHA-L stimulated human PBMCs. The series is classed as cell-based. The conditions noted are these: Homo sapiens, PBMC. The method, boiled down: as §1
Series [2] is described as follows: In-vitro skin permeation study (Franz cell assay). The series is classed as in vitro ADME. The settings on record: N=15 (3 skin donors, 5 replicates per donor). As for the experimental part:
Topical formulations prepared containing Example 4 that were tested for skin permeability and maximum flux of Example 4 are listed in Table 13.
A higher driving force can be achieved via incorporation into the formulations of additional penetration enhancers such as oleyl alcohol.

[3] abbreviates: 0.01% Example 4 ointment formulation from Table 13.
Where [4] appears, read: 0.1% Example 4 ointment formulation from Table 13.
The mark [5] stands for this setting: 1% Example 4 ointment formulation from Table 13.

A word on the IC50: it is the midpoint of a concentration-inhibition curve.

Chain of PDE4B (aa 152-484, Uniprot ID Q07343) (Q07343 324-656): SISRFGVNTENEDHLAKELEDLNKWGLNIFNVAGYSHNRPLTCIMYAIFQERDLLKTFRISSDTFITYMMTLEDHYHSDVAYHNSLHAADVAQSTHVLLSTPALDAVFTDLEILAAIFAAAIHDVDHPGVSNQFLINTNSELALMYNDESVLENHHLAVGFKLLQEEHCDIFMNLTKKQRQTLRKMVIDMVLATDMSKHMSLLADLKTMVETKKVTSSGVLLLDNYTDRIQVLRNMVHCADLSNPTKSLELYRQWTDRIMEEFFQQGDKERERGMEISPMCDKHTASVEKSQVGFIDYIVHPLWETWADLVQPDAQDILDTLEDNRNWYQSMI

Take `CCCOc1cc(-c2cncc([C@@H]3COB(O)C3)c2)ccc1OC` [Example 4, (R) 4-(5-(4-methoxy-3-propoxyphenyl)pyridin-3-yl)-1,2-oxaborolan-2-ol]: the concentration for half-maximal inhibition (IC50) was 0.5 nM in series [1], 4.11 nM with IL-4, 135 nM with IL-13 and 1.06 nM in the series with IFNγ. Further, the entries for the “Mean, Cumulative Amount in 24 hours” value in series [2] (setting [3]), in series [2] (setting [4]) and in series [2] (setting [5]) were 233.0 ng, 1089.9 ng and 3357.7 ng, respectively. In addition, the entries for the “Mean, Max. Flux” value in series [2] (setting [3]), in series [2] (setting [4]) and in series [2] (setting [5]) were 20.14 ng/cm^2/hr, 73.95 ng/cm^2/hr and 252.28 ng/cm^2/hr, respectively.

For the compound `COc1ccc(-c2cc(C3COB(O)C3)ccn2)cc1OC1CCCC1` (stereo not drawn) [Example 210, 4-(2-(3-(cyclopentyloxy)-4-methoxyphenyl)pyridin-4-yl)-1,2-oxaborolan-2-ol], the IC50 was 1.92 nM in series [1], 17.6 nM in the series with IL-4, 2390 nM with IL-13 and 2.4 nM with IFNγ.

For the compound `CCCOc1cc(-c2nccc(C3COB(O)C3)n2)ccc1OC` (stereo not drawn) [Example 212, 4-(2-(4-methoxy-3-propoxyphenyl)pyrimidin-4-yl)-1,2-oxaborolan-2-ol], the half-inhibitory concentration (IC50) in series [1] turned out to be 2.27 nM; with IL-4 it was 103 nM; in the series with IL-13, 1900 nM; in the series with IFNγ, 3.29 nM.

Regarding `CCCOc1c(OC)ccc(-c2cccc(C3COB(O)C3)n2)c1F` (stereo not drawn) [Example 213, 4-(6-(2-fluoro-4-methoxy-3-propoxyphenyl)pyridin-2-yl)-1,2-oxaborolan-2-ol], the IC50 in series [1] was found to be 6.32 nM; in the series with IL-4 it was 80.9 nM; with IL-13 it was 1980 nM; in the series on IFNγ, 3.36 nM.

`CCCOc1c(OC)ccc(-c2cncc(C3COB(O)C3)n2)c1F` (stereo not drawn) [Example 215, 4-(6-(2-fluoro-4-methoxy-3-propoxyphenyl)pyrazin-2-yl)-1,2-oxaborolan-2-ol]: the concentration for half-maximal inhibition (IC50) in series [1] amounted to 2.58 nM; in the series on IL-4, 62.7 nM; with IL-13, 2050 nM; in the series with IFNγ it was 2.18 nM.

Take `CCOc1ccc(-c2cncc(C3COB(O)C3)c2)c(F)c1OC` (stereo not drawn) [Example 217, 4-(5-(4-ethoxy-2-fluoro-3-methoxyphenyl)pyridin-3-yl)-1,2-oxaborolan-2-ol]: the 50% inhibitory concentration (IC50) worked out at 5.5 nM in series [1], 20.5 nM in the series on IL-4, 2070 nM in the series on IL-13 and 10.3 nM in the series with IFNγ.

With `CCCOc1cc(-c2cc(C3COB(O)C3)cnc2C)cnc1OC` (stereo not drawn) [Example 218, 4-(6′-methoxy-2-methyl-5′-propoxy-[3,3′-bipyridin]-5-yl)-1,2-oxaborolan-2-ol], the IC50 in series [1] amounted to 1.45 nM; in the series on IL-4, 3.24 nM; in the series with IL-13, 2840 nM; in the series on IFNγ it was 2.3 nM.

Consider `CCOc1cc(-c2cc(C(F)(F)F)cc(C3COB(O)C3)n2)ccc1OC` (stereo not drawn) [Example 220, 4-(6-(3-ethoxy-4-methoxyphenyl)-4-(trifluoromethyl)pyridin-2-yl)-1,2-oxaborolan-2-ol], for which the concentration for half-maximal inhibition (IC50) in series [1] is 3.29 nM; with IL-4, 540 nM; in the series on IL-13, 2130 nM; with IFNγ, 2.37 nM.

As for `CCOc1cc(C2COB(O)C2)nc(-c2ccc(OC)c(OCC)c2)n1` (stereo not drawn) [Example 222, 4-(6-ethoxy-2-(3-ethoxy-4-methoxyphenyl)pyrimidin-4-yl)-1,2-oxaborolan-2-ol], the IC50 is 1.14 nM in series [1], 1.44 nM in the series with IL-4, 2370 nM in the series on IL-13 and 1.17 nM in the series on IFNγ.

With `CCCOc1cc(-c2nc(OC)cc(C3COB(O)C3)n2)ccc1OC` (stereo not drawn) [Example 224, 4-(6-methoxy-2-(4-methoxy-3-propoxphenyl)pyrimidin-4-yl)-1,2-oxaborolan-2-ol], the IC50 was 2.17 nM in series [1], 8.94 nM in the series on IL-4, 2490 nM in the series on IL-13 and 8.12 nM in the series on IFNγ.

With `COc1ccc(-c2cccc(C3COB(O)C3)n2)c(C#N)c1OC1CCCC1` (stereo not drawn) [Example 226, 2-(cyclopentyloxy)-6-(6-(2-hydroxy-1,2-oxaborolan-4-yl)pyridin-2-yl)-3-methoxybenzonitrile], the IC50 came to 8.72 nM in series [1], 24.7 nM with IL-4, 2520 nM with IL-13 and 17.8 nM with IFNγ.

As for `COc1ccc(-c2cc(C3=CB(O)OC3)ccn2)cc1OC` [Example 227, 4-(2-(3,4-dimethoxphenyl)pyridin-4-yl)-1,2-oxaborol-2(5H)-ol], the IC50 in series [1] was 7.94 nM; with IL-4, 285 nM; with IL-13, 2540 nM; in the series on IFNγ, 9.16 nM.

As to `CCOc1cc(-c2cncc(C3=CB(O)OC3)c2)ccc1OC` [Example 229, 4-(5-(3-ethoxy-4-methoxyphenyl)pyridin-3-yl)-1,2-oxaborol-2(5H)-ol], the IC50 in series [1] amounted to 2.64 nM; in the series with IL-4, 195 nM; with IL-13, 2730 nM; in the series with IFNγ it was 2.9 nM.

Regarding `COc1ccc(-c2cccc(C3COB(O)C3)c2)cc1OC` (stereo not drawn) [Example 232, 4-(3′,4′-dimethoxy-[1,1′-biphenyl]-3-yl)-1,2-oxaborolan-2-ol], the 50% inhibitory concentration (IC50) in series [1] turned out to be 4.65 nM; in the series with IL-4 it was 197 nM; with IL-13, 583 nM; in the series with IFNγ it was 17.9 nM.

On to `CCOc1cc(-c2cccc(C3COB(O)C3)n2)ccc1OC` (stereo not drawn) [Example 233, 4-(6-(3-ethoxy-4-methoxyphenyl)pyridin-2-yl)-1,2-oxaborolan-2-ol], for which the concentration for half-maximal inhibition (IC50) in series [1] stood at 8.74 nM; in the series with IL-4, 104 nM; in the series with IL-13, 508 nM; with IFNγ it was 2.94 nM.

Values taken from patent publication US11559538B2, “Substituted 1,2-oxaborolan-2-ols as PDE4 inhibitors” (Pfizer Inc., priority 2018, dated 2023).
